The target of the first experiment is T1, BRD4-BD2 (Homo sapiens, UniProt O60885).
T1 construct: made in house; host or cells: T7 phage grown in an E. coli host derived from BL21
Kind of experiment: bromoKdELECT assay for binding affinity to BRD4-BD2. As to conditions: Table 7. The protocol:
Compounds were tested using a bromoKdELECT assay. T7 phage strains displaying bromodomains were grown in parallel in 24-well blocks in an E. coli host derived from the BL21 strain. E. coli were grown to log-phase and infected with T7 phage from a frozen stock (multiplicity of infection=0.4) and incubated with shaking at 32° C. until lysis (90-150 minutes). The lysates were centrifuged (5,000×g) and filtered (0.2 μm) to remove cell debris. Streptavidin-coated magnetic beads were treated with biotinylated small molecule or acetylated peptide ligands for 30 minutes at room temperature to generate affinity resins for bromodomain assays. The liganded beads were blocked with excess biotin and washed with blocking buffer (SeaBlock (Pierce), 1% BSA, 0.05% Tween 20, 1 mM DTT) to remove unbound ligand and to reduce nonspecific phage binding. Binding reactions were assembled by combining bromodomains, liganded affinity beads, and test compounds in 1× binding buffer (17% SeaBlock, 0.33×PBS, 0.04% Tween 20, 0.02% BSA, 0.004% Sodium azide, 7.4 mM DTT). Test compounds were prepared as 1000× stocks in 100% DMSO. Kds were determined using an 11-point 3-fold compound dilution series with one DMSO control point. All compounds for Kd measurements are distributed by acoustic transfer (non-contact dispensing) in 100% DMSO. The compounds were then diluted directly into the assays such that the final concentration of DMSO was 0.09%. All reactions performed in polypropylene 384-well plates. Each was a final volume of 0.02 ml. The assay plates were incubated at room temperature with shaking for 1 hour and the affinity beads were washed with wash buffer (1×PBS, 0.05% Tween 20). The beads were then resuspended in elution buffer (1×PBS, 0.05% Tween 20, 2 μM non-biotinylated affinity ligand) and incubated at room temperature with shaking for 30 minutes. The bromodomain concentration in the eluates was measured by qPCR.
`Cc1sc2c(c1C)C(c1ccc(CCCOC3CCN(c4ncc(C(=O)N[C@H]5C(C)(C)[C@H](Oc6ccc(C#N)c(Cl)c6)C5(C)C)cn4)CC3)cc1)=N[C@@H](CC(=O)NC1CC1)c1nnc(C)n1-2` [Compound I-102] came in with a Kd of 50 to 500 nM.
On the same count and under the same terms, as for `CCNC(=O)C[C@@H]1N=C(c2ccc(OCCOC3CCN(c4ncc(C(=O)N[C@H]5C(C)(C)[C@H](Oc6ccc(C#N)c(Cl)c6)C5(C)C)cn4)CC3)cc2F)c2c(sc(C)c2C)-n2c(C)nnc21` [Compound I-75], the figure is 50 to 500 nM; as for `CCN(C)C(=O)C[C@@H]1N=C(c2ccc(CCCOC3CCN(c4ncc(C(=O)N[C@H]5C(C)(C)[C@H](Oc6ccc(C#N)c(Cl)c6)C5(C)C)cn4)CC3)cc2)c2c(sc(C)c2C)-n2c(C)nnc21` [Compound I-101], above 2500 nM; as for `Cc1sc2c(c1C)C(c1ccc(CCCOC3CCN(c4ncc(C(=O)N[C@H]5C(C)(C)[C@H](Oc6ccc(C#N)c(Cl)c6)C5(C)C)cn4)CC3)cc1)=N[C@@H](CC(=O)NC(C)C)c1nnc(C)n1-2` [Compound I-100], 500 to 2500 nM.
`Cc1sc2c(c1C)C(c1ccc(CCCOC3CCN(c4ncc(C(=O)N[C@H]5C(C)(C)[C@H](Oc6ccc(C#N)c(Cl)c6)C5(C)C)cn4)CC3)cc1)=N[C@@H](C)c1nnc(C)n1-2` [Compound I-228, N-[3-(3-chloro-4-cyano-phenoxy)-2,2,4,4-tetramethyl-cyclobutyl]-2-[4-[3-[4-[(9S)-4,5,9,13-tetramethyl-3-thia-1,8,11,12-tetrazatricyclo [8.3.0.02,6]trideca-2(6),4,7,10,12-pentaen-7-yl]phenyl]propoxy]-1-piperidyl]pyrimidine-5-carboxamide] had a Kd above 2500 nM.
In turn, `CCNC(=O)C[C@@H]1N=C(c2ccc(OCCOC3CCN(c4ncc(C(=O)N[C@H]5C(C)(C)[C@H](Oc6ccc(C#N)c(Cl)c6)C5(C)C)cn4)CC3)cc2)c2c(sc(C)c2C)-n2c(C)nnc21` [Compound I-60, N-((1r,3r)-3-(3-chloro-4-cyanophenoxy)-2,2,4,4-tetramethylcyclobutyl)-2-(4-(2-(4-((S)-6-(2-(ethylamino)-2-oxoethyl)-2,3,9-trimethyl-6H-thieno[3,2-f][1,2,4]triazolo[4,3-a][1,4]diazepin-4-yl)phenoxy)ethoxy)piperidin-1-yl)pyrimidine-5-carboxamide] registered a Kd of 50 to 500 nM.
On the same count and under the same terms, with `CCNC(=O)C[C@@H]1N=C(c2ccc(OCCOC3CCN(c4ncc(C(=O)N[C@H]5C(C)(C)[C@H](Oc6ccc(C#N)c(Cl)c6)C5(C)C)cn4)CC3)c(F)c2)c2c(sc(C)c2C)-n2c(C)nnc21` [Compound I-76] the figure was 50 to 500 nM.
Still for that read-out and setting: with `CCNC(=O)C[C@@H]1N=C(c2ccc(N(C)CCN3CCN(c4ncc(C(=O)N[C@H]5C(C)(C)[C@H](Oc6ccc(C#N)c(Cl)c6)C5(C)C)cn4)CC3)cc2)c2c(sc(C)c2C)-n2c(C)nnc21` [Compound I-108] the figure was 500 to 2500 nM.

The target in the next experiment is T2, androgen receptor (Homo sapiens, UniProt P10275).
T2 sequence (P10275 1-920 T878A): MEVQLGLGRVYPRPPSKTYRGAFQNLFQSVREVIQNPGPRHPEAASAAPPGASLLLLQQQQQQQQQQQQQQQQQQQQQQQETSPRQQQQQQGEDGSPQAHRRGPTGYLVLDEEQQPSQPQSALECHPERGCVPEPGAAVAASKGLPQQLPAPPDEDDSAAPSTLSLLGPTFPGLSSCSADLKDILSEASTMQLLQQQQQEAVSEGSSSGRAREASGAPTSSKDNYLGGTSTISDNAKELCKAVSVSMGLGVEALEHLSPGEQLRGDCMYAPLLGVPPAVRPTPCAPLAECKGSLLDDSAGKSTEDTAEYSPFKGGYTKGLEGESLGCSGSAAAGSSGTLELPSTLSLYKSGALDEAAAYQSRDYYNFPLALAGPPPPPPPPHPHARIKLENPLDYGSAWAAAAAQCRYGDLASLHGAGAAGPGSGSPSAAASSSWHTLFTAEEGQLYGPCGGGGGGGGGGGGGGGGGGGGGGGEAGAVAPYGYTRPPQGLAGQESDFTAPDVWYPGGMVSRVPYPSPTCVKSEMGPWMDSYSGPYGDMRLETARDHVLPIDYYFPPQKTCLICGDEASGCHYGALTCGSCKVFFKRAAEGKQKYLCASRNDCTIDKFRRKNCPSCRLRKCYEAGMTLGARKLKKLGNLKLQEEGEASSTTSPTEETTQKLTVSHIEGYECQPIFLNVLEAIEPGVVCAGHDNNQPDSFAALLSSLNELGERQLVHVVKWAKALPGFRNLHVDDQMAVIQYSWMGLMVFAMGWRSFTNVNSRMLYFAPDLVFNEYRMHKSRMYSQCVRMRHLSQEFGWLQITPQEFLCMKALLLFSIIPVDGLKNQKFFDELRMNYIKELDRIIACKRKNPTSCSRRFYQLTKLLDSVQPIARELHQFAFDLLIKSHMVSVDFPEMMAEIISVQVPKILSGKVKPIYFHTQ
As to the kind of experiment: Assay for binding affinity to androgen receptor ([3H]methyltrienolone radioligand, cell cytosol). To be noted: 1 nM [3H]methyltrienolone, 24 hours at 4° C., Table 5. Here is the method:
Fractions of cell cytosol ([…] cell/point) were incubated for 24 hours at 4° C. with 1 nM [^3H]methyltrienolone in the absence or presence of the test compound in a buffer containing 25 mM Hepes-Tris (pH 7.4), 1 mM EDTA, 10 mM Na2MoO4, 2 mM DTT, 5 μM triamcinolone acetonide, and 10% glycerol. Nonspecific binding was determined in the presence of 1 μM testosterone. Following incubation, the samples were filtered rapidly under vacuum through glass fiber filters (GF/B, Packard) presoaked with 0.3% PEI and rinsed several times with ice-cold 50 mM Tris-HCl using a 96-sample cell harvester (Unifilter, Packard). The filters were dried then counted for radioactivity in a scintillation counter (Topcount, Packard) using a scintillation cocktail (Microscint 0, Packard). The results are expressed as a percent inhibition of the control radioligand specific binding. The standard reference compound is testosterone, which is tested in each experiment at several concentrations to obtain a competition curve from which its IC50 is calculated.
`Cc1sc2c(c1C)C(c1ccc(Cl)cc1)=N[C@H](CC(=O)NCCOCCOCCOCCOC1CCN(c3ncc(C(=O)N[C@H]4C(C)(C)[C@H](Oc5ccc(C#N)c(Cl)c5)C4(C)C)cn3)CC1)c1nnc(C)n1-2` [Compound I-13] gave a Kd below 50 nM.
Take `Cc1sc2c(c1C)C(c1ccc(Cl)cc1)=N[C@@H](CC(=O)NCCCN1CCN(CCCOC3CCN(c4ncc(C(=O)N[C@H]5C(C)(C)[C@H](Oc6ccc(C#N)c(Cl)c6)C5(C)C)cn4)CC3)CC1)c1nnc(C)n1-2` [Compound I-10]: the Kd is below 50 nM.
The compound `Cc1sc2c(c1C)C(c1ccc(OCCOC3CCN(c4ncc(C(=O)N[C@H]5C(C)(C)[C@H](Oc6ccc(C#N)c(Cl)c6)C5(C)C)cn4)CC3)cc1)=N[C@@H](CC(=O)O)c1nnc(C)n1-2` [Compound I-38] came in with a Kd below 50 nM.
As to `CCNC(=O)C[C@@H]1N=C(c2ccc(OCCCC#Cc3ncc(C(=O)N[C@H]4C(C)(C)[C@H](Oc5ccc(C#N)c(Cl)c5)C4(C)C)cn3)cc2)c2c(sc(C)c2C)-n2c(C)nnc21` [Compound I-83], the Kd was below 50 nM.
Turning to `Cc1sc2c(c1C)C(c1ccc(Cl)cc1)=N[C@H](CC(=O)NCCOCCOCCOCCOCCN(C)c1ncc(C(=O)N[C@H]3C(C)(C)[C@H](Oc4ccc(C#N)c(Cl)c4)C3(C)C)cn1)c1nnc(C)n1-2` [Compound I-19], the Kd is below 50 nM.
`CCNC(=O)C[C@@H]1N=C(c2ccc(OCCOCCOC3CCN(c4ncc(C(=O)N[C@H]5C(C)(C)[C@H](Oc6ccc(C#N)c(Cl)c6)C5(C)C)cn4)CC3)cc2)c2c(sc(C)c2C)-n2c(C)nnc21` [Compound I-44] gave a Kd below 50 nM.
On to `CCNC(=O)C[C@@H]1N=C(c2ccc(N3CCC(CN4CC(Oc5ncc(C(=O)N[C@H]6C(C)(C)[C@H](Oc7ccc(C#N)c(Cl)c7)C6(C)C)cn5)C4)CC3)cc2)c2c(sc(C)c2C)-n2c(C)nnc21` [Compound I-124], for which the Kd is below 50 nM.
Compound `CCNC(=O)C[C@@H]1N=C(c2ccc(OCCOCCOCCOC3CCN(c4ncc(C(=O)N[C@H]5C(C)(C)[C@H](Oc6ccc(C#N)c(Cl)c6)C5(C)C)cn4)CC3)cc2)c2c(sc(C)c2C)-n2c(C)nnc21` [Compound I-45, N-((1r,3r)-3-(3-chloro-4-cyanophenoxy)-2,2,4,4-tetramethylcyclobutyl)-2-(4-(2-(2-(2-(4-((S)-6-(2-(ethylamino)-2-oxoethyl)-2,3,9-trimethyl-6H-thieno[3,2-f][1,2,4]triazolo[4,3-a][1,4]diazepin-4-yl)phenoxy)ethoxy)ethoxy)ethoxy)piperidin-1-yl)pyrimidine-5-carboxamide] came in with a Kd below 50 nM.
The compound `Cc1sc2c(c1C)C(c1ccc(CC3CC4(CCN(c5ncc(C(=O)N[C@H]6C(C)(C)[C@H](Oc7ccc(C#N)c(Cl)c7)C6(C)C)cn5)CC4)C3)cc1)=N[C@@H](C)c1nnc(C)n1-2` [Compound I-303] showed a Kd below 50 nM.
Same read-out and setting: with `Cc1sc2c(c1C)C(c1ccc(OCCOCCOC3CCN(c4ncc(C(=O)N[C@H]5C(C)(C)[C@H](Oc6ccc(C#N)c(Cl)c6)C5(C)C)cn4)CC3)cc1)=N[C@@H](CC(=O)O)c1nnc(C)n1-2` [Compound I-39] the figure was below 50 nM; with `CCNC(=O)C[C@@H]1N=C(c2ccc(N3CCC(N(C)C4CN(c5ncc(C(=O)N[C@H]6C(C)(C)[C@H](Oc7ccc(C#N)c(Cl)c7)C6(C)C)cn5)C4)CC3)cc2)c2c(sc(C)c2C)-n2c(C)nnc21` [Compound I-123], below 50 nM.
`Cc1sc2c(c1C)C(c1ccc(Cl)cc1)=N[C@@H](CC(=O)NCCOCCOCCOCC1CCN(c3ncc(C(=O)N[C@H]4C(C)(C)[C@H](Oc5ccc(C#N)c(Cl)c5)C4(C)C)cn3)CC1)c1nnc(C)n1-2` [Compound I-17] yielded a Kd below 50 nM.

(Values after patent publication US20260062422A1 (Halda Therapeutics OpCo, Inc., priority 2022, published 2026).)
